Test results as given in US20120190707A1, “SELECTIVE INHIBITORS OF AKT AND METHODS OF USING SAME” (priority 2008, published 2012).
Entries after “also recorded” stand apart in the source; their conditions may differ.

Legend:
[1] = mouse, in vivo
PARP = PARP cleavage in 903 and 29-1 cells; type: cell-based, human; details: 2, 4 and 6 hours; listed as BI-69A11
Method: (A) 903 and 29-1 cells were exposed to different concentrations of BI-69A11 or UV light as a positive control and the percentage of cell death determined by trypan blue exclusion assay. (B) PARP cleavage was determined in 903 and 29-1 cells after treatment with BI-69A11 at 2, 4 and 6 hours.
Since AKT activity is important for tumor cell survival, its inhibition is expected to result in cell death. We thus monitored cell death in melanoma cells that were treated with BI-69A11.
(§1) For western blotting techniques, cells were lysed in RIPA buffer containing 50 mM TrisHCl pH7.4, 150 mM NaCl, 2 mM EDTA, 1% NP-40, 0.1% SDS. The protein concentration was estimated using the Coomassie Protein assay kit (Thermo Scientific, Rockford, Ill., USA). Equal concentrations of cell lysate (30-50 ug) were resolved on a 10% polyacrylamide gel and transferred onto Nitrocellulose membrane (GE Amersham). Membranes were blocked for 1-2 hours in either 3% BSA or 5% nonfat dried milk in Tris-buffered saline containing 0.05% Tween 20. Primary antibody incubations were performed overnight at 4° C. with shaking. The blots were washed followed by incubation with a secondary antibody incubation for 1 hour at room temperature. After washing, the blots were scanned on the Odyssey Licor scanner at the appropriate wavelength and the image was captured using the Odyssey software.

AKT [2] = assay: AKT expression by western blot in MCF7 breast cancer cells; type: cell-based; details: MCF7, 5 and 10 micro.M
Method: (§2) (A) MeWo melanoma cells growing in 60 mm plates were treated with the indicated concentration of the inhibitor for 4 h before proteins were prepared for western blot analysis using the indicated antibodies. Level of beta.actin was monitored as a control for protein loading. (B) Experiment was performed as indicated in panel A, except that cells were harvested after 24 h for analysis of cell death using trypan blue staining. (C) Melanoma (MeWo), prostate cancer (PC3) and breast cancer (MCF7) cells were treated with BI-69A11 at the indicated concentrations; levels of AKT phosphorylation or expression were assessed 4 h later. The level of beta.actin used as a control for protein loading. (D) Experiment was performed as indicated in panel C, except that cells were harvested after 4 h for analysis of cell death using trypan blue staining.
For western blotting techniques, cells were lysed in RIPA buffer containing 50 mM TrisHCl pH7.4, 150 mM NaCl, 2 mM EDTA, 1% NP-40, 0.1% SDS. The protein concentration was estimated using the Coomassie Protein assay kit (Thermo Scientific, Rockford, Ill., USA). Equal concentrations of cell lysate (30-50 ug) were resolved on a 10% polyacrylamide gel and transferred onto Nitrocellulose membrane (GE Amersham). Membranes were blocked for 1-2 hours in either 3% BSA or 5% nonfat dried milk in Tris-buffered saline containing 0.05% Tween 20. […]

Initial MTD assays = details: in vivo, 5 mg/kg; data not shown; read-out: dose at which MTD assays revealed toxicity
PC3 prostate tumor cells = assay: Cell death by trypan blue staining, PC3; type: cell-based; details: PC3, 5 micro.M, within 4 hours
Method: as §2
For the proliferation assays, cells were treated as described above. However, instead of scraping cells into the serum-free medium, floating cells were collected in a 15 mL centrifuge tube whereas adherent cells trypsinized gently. The total cell population was pooled and counted on a hemocytometer after staining with Trypan Blue.

AKT [3] = assay: pAKT473 and total AKT by western analysis in 29-1 (PTEN+) cells; type: cell-based, human; details: 29-1 cells
Method: FIG. 6 describes the effect of BI-69A11 on phosphorylation and total levels of AKT in UACC 903 (PTEN−) cells. (A) UACC903 and the modified clone 29-1 (PTEN+) cells were exposed to 10 micro.M BI-69A11 and 50 micro.M LY294002 (a PI3K inhibitor) and the levels of pAKT473 and total AKT determined by western analysis. […] (SF=Serum Free). (B) BI-69A11 inhibits PRAS40 phosphorylation. UACC903 melanoma cells or 29-1 cells (PTEN+) were subjected to treatment with IGF-1 (20 ng/mL) and the level of PRAS40 phosphorylation was assessed. […] The cells were collected, lysed and levels of pPRAS40 and total PRAS40 determined by western analysis. (C) AKT association with HSP90 is inhibited by BI-69A11. Human melanoma cells were treated with BI-69A11 (10.micro.M) or DMSO control for 4 h, followed by protein preparation and immunoprecipitation using antibodies to pan-AKT. MG132 treatment, when used, initiated 1 h prior to treatment and lasted up to the preparation of proteins (total of 5 h). The right panel depicts analysis of total lysates.
The term “cell lines”, as used herein, unless otherwise indicated, refer to UACC 903 cells and 29-1 cells. The cells were cultured in DMEM, supplemented with 10% FBS and maintained at 37° C. in 5% CO2. Cells were plated to 75% confluency and grown overnight at 37° C. […]

AKT [4] = assay: AKT phosphorylation and expression by western blot in MeWo melanoma cells; type: cell-based
Method: as §2
To evaluate the effectiveness of BI-69A11 on melanoma cells we assessed the effect of different concentrations on AKT phosphorylation in MeWO cells.
as §1

PI3K = assay: Activity of other protein kinases: PI3K; type: biochemical; details: 100 micro.M
Excerpt: (§3) We recently reported on the direct evaluation of a number of in silico approaches to identify AKT inhibitors (Forino et al., 2005) We achieved experimental validation of selected compounds using both a fluorescence-based enzymatic assay and a substrate phosphorylation assay involving the protein GSK-3 (Forino et al., 2005). Briefly, the virtual docking approach consists of selecting the top 4,000 out of 50,000 docked compounds, using a variety of computational docking approaches, including a consensus score among two different scoring functions (Forino et al., 2005). Of those, 100 compounds were selected based on ranking and favorable docking geometry.

JNK = assay: Activity of other protein kinases: JNK; type: biochemical; details: 100 micro.M
Excerpt: as §3

O=C(/C=C/c1nc2ccccc2[nH]1)c1c(O)nc2ccc(Cl)cc2c1-c1ccccc1 [Compound 2, (E)-3-(3-(1H-benzo[d]imidazol-2-yl)acryloyl)-6-chloro-4-phenylquinolin-2(1H)-one]
cytokines in the blood, treated vs. control [1]: induction of TNFalpha
toxicity by blood work [1]: lack of toxicity
PARP cleavage, 903 cells compared with 29-1 (PARP): more pronounced in the UAC903 cells; also recorded: Increased PARP cleavage
AKT protein levels (AKT [2]): not affected
MTD (Initial MTD assays): 5 mg/kg
cell death (PC3 prostate tumor cells): about 25%
AKT phosphorylation (AKT [3]): limited to no effect
levels of total AKT (AKT [3]; 10 micro.M, increasing time after treatment): reduced levels of total AKT
AKT phosphorylation on S473 (AKT [4]; 3 micro.M, 4 h): partial inhibition
AKT protein levels (AKT [4]; 5 and 10 micro.M): reduced levels of AKT protein
basal level of AKT phosphorylation (AKT [4]; 5 and 10 micro.M, 4 h): effectively inhibited
AKT phosphorylation (AKT [4]; low doses (<0.3 micro.M), 4 h): did not affect
effect on PI3K activity (PI3K): did not affect
effect on JNK activity (JNK): did not affect
